Test results: patent US10174016B2 (BAYER AKTIENGESELLSCHAFT, priority 2014, dated 2019)
Like-named read-outs stand apart in the source and are kept apart here.

What was measured:
[1] = system: rat hepatocytes; test: In vitro metabolic stability in rat hepatocytes; type: in vitro ADME, Han Wistar rats; details: 1 μM, 1.0×10^6 cells/mL, maximal oral bioavailability calculated from half-life
Method: Determination of in vitro metabolic stability in rat hepatocytes (including calculation of hepatic in vivo blood clearance (CL))
Hepatocytes from Han Wistar rats were isolated via a 2-step perfusion method. After perfusion, the liver was carefully removed from the rat: the liver capsule was opened and the hepatocytes were gently shaken out into a Petri dish with ice-cold Williams' medium E (WME). The resulting cell suspension was filtered through sterile gaze in 50 mL falcon tubes and centrifuged at 50×g for 3 min at room temperature. The cell pellet was resuspended in 30 mL WME and centrifuged through a Percoll® gradient for 2 times at 100×g. The hepatocytes were washed again with WME and resuspended in medium containing 5% FCS. Cell viability was determined by trypan blue exclusion.
The test compound was added to a final concentration of 1 μM. […] Samples were frozen at −20° C. overnight, subsequently centrifuged for 15 minutes at 3000 rpm and the supernatant was analyzed with an Agilent 1200 HPLC-system with LCMS/MS detection.
(§1) The half-life of a test compound was determined from the concentration-time plot. From the half-life (kel: slope of concentration-time plot; half-life=ln 2/kel) the intrinsic clearances were calculated. Together with the additional parameters liver blood flow, amount of liver cells in vivo and in vitro.
(§2) Metabolic instability is often the main clearance mechanism of xenobiotica leading to a high CL and low bioavailability which may eventually result in a short half-life and a low exposure after oral administration. Thus, reducing the susceptibility of metabolic degradation usually leads to a more favourable pharmacokinetic profile. When using liver microsomes as incubation matrix main phase I metabolic reactions, typically oxidoreductive reactions by cytochrome P450 enzymes and flavin mono-oxygenases (FMO) and hydrolytic reactions by esterases/amidases/epoxidhydrolases, are described. When the incubation of the test compound is performed in a hepatocyte matrix all potential hepatic metabolic processes (phase I and phase II) are covered.

[2] = In vitro metabolic stability in liver microsomes (calculation of CL and Fmax); type: in vitro ADME, human; details: 1 μM, 0.5 mg/mL protein, maximal oral bioavailability calculated from half-life
Method: In Vitro Metabolic Stability Assays Determination of in vitro metabolic stability in microsomes (including calculation of hepatic in vivo blood clearance (CL) and of maximal oral bioavailability (Fmax))
The metabolic assay was started shortly afterwards by adding the test compound to the incubation at a final volume of 1 mL. Organic solvent in the incubations was limited to […] dimethylsulfoxide (DMSO) and ≤1% acetonitrile. […] Samples were frozen at −20° C. overnight, subsequently centrifuged for 15 minutes at 3000 rpm and the supernatant was analyzed with an Agilent 1200 HPLC-system with LCMS/MS detection.
as §1, with “specific” for “amount of”, “weight and microsomal protein content the hepatic” for “cells”, “vivo blood clearance (CL)” for “vivo”, “the maximal oral bioavailability (Fmax) were calculated for the different species.” for “in vitro.”
as §2

[3] = system: CFA-induced mechanical hyperalgesia; test: Rat CFA in vivo model (mechanical hyperalgesia, paw withdrawal threshold); design: species or system Male Sprague Dawley rats; details: dosed 24 hours after CFA injection
Method: Rat CFA In Vivo Model Male Sprague Dawley rats were used. Mechanical hyperalgesia was induced by injecting 25 μl of Complete Freund's Adjuvant (CFA) into the plantar surface of one hind paw. Mechanical hyperalgesia was measured using the Pressure Application Measurement apparatus (Ugo Basile, Gemonio, Italy). Briefly, a linearly increasing pressure was applied to an area of ˜50 mm2 of the plantar side of the hind paw until a behavioural response (paw withdrawal) was observed or until the pressure reached 1000 gf. The pressure at which the behavioural response occurred was recorded as the “Paw Withdrawal Threshold” (PWT). Both CFA-injected and contralateral PWTs were determined for each rat, in each treatment group and at each time point of the studies. […] Compounds were dosed 24 hours after CFA injection. Data were expressed as the mean PWT for each treatment group and at each time point. Data were analysed by performing a repeated measures two way ANOVA (time×treatment). Planned comparison of means (each versus vehicle) was performed by using a Dunnett's post hoc test, provided that a main effect was detected. […] More preferred examples of the present invention show rat CFA in vivo efficacy in the ‘Paw withdrawal threshold 6 hours post drug’ measure when dosed at 3 mg/kg p.o.

[4] = target: human P2X3 receptor (Homo sapiens (Human), UniProt P56373); test: Intracellular calcium measurement (FLIPR, Fluo-4) of antagonist activity at human P2X3 receptors; type: cell-based
Sequence of human P2X3 receptor (P56373 whole entry): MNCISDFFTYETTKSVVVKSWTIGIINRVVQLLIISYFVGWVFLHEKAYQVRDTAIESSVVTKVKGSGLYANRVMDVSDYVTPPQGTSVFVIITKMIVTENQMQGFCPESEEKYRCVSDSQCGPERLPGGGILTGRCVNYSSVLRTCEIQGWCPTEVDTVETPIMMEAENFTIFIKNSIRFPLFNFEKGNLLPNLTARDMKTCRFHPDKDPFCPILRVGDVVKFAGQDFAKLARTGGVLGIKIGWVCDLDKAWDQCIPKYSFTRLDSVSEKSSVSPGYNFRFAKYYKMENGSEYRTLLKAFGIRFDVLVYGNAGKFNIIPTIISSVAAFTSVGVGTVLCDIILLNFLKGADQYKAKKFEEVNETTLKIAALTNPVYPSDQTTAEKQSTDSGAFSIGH
Procedure, shortened: (§3)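 Antagonism quantified from peak calcium fluorescence (Fluo-4, FLIPR, 90 sec read) evoked by EC80 α,β-Me-ATP, after a 30 min, 37° C. compound pretreatment in 1% DMSO. Human P2X3- or P2X2/3-expressing cells used; triplicate means fitted for IC50, percent maximal inhibition and Hill coefficient.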

[5] = target: human P2X2/3 receptor (Homo sapiens (Human), UniProt P56373+Q9UBL9); test: Intracellular calcium measurement (FLIPR, Fluo-4) of antagonist activity at human P2X2/3 receptors; type: cell-based; details: human P2X2/3, FLIPR calcium assay, agonist α,β-Me-ATP; read-out: hP2X2/3 IC50
Sequence of human P2X2/3 receptor (P56373 whole entry): as above
Sequence of human P2X2/3 receptor (Q9UBL9 whole entry): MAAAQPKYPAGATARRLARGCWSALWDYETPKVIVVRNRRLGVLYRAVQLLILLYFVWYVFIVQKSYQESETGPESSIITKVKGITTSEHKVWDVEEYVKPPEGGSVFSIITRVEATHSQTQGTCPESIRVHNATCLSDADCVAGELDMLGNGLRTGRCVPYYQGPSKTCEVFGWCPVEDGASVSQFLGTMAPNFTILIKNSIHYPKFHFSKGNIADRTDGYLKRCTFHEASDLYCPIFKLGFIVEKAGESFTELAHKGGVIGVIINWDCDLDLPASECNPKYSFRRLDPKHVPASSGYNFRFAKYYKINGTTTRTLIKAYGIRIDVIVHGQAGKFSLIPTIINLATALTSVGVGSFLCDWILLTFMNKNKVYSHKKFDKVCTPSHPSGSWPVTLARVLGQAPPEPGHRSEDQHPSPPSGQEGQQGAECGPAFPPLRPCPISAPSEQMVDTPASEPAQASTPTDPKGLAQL
Procedure, shortened: as §3

[6] = human P2X3, FLIPR calcium assay, agonist α,β-Me-ATP, read-out: hP2X3 IC50

Row | Compound | IC50 [4, 6] | IC50 [5] | other results
1 | Cc1cnc(-c2cc(OC(C)C(C)O)cc(C(=O)N[C@H](C)c3cnc(C(F)(F)F)nc3)c2)s1 (single isomer, unassigned) [Example 340] |  |  | Rat hepatocyte Fmax [1]: 64%; Human liver microsome Fmax [2]: 90%
2 | CC(O)C(C)Oc1cc(C(=O)N[C@H](C)c2cnc(C(F)(F)F)nc2)cc(-c2ncc(Cl)s2)c1 (single isomer, unassigned) [Example 185] |  |  | Paw withdrawal threshold 6 hour-post drug ([3]; 3 mg/kg p.o.): 630 ± 81 (*) gf
3 | Cc1cnc(-c2cc(OC(C)C(C)O)cc(C(=O)N[C@H](C)c3ccc(C(F)(F)F)nn3)c2)s1 (single isomer, unassigned) [Example 183] |  |  | Rat hepatocyte Fmax [1]: 43%; Human liver microsome Fmax [2]: 74%
4 | Cc1cnc(-c2cc(OC[C@H]3CN(C)CCO3)cc(C(=O)N[C@H](C)c3cnc(C(F)(F)F)nc3)c2)s1 [Example 348, 3-{[(2R)-4-methylmorpholin-2-yl]methoxy}-5-(5-methyl-1,3-thiazol-2-yl)-N-{(1R)-1-[2-(trifluoromethyl)pyrimidin-5-yl]ethyl}benzamide] | 7 nM | 760 nM | Paw withdrawal threshold 6 hour-post drug ([3]; 0.3 mg/kg p.o.): 599 ± 47 gf (*); Paw withdrawal threshold 6 hour-post drug ([3]; 1 mg/kg p.o.): 601 ± 28 gf (**); Paw withdrawal threshold 6 hour-post drug ([3]; 3 mg/kg p.o.): 633 ± 59 gf (*); IC50 ([4]; read-out: human P2X3 receptor IC50): 7 nM
5 | Cc1cnc(-c2cc(OC(C)C(C)O)cc(C(=O)N[C@H](C)c3cnc(C(F)(F)F)nc3)c2)s1 (single isomer, unassigned) [Example 339] |  |  | Rat hepatocyte Fmax [1]: 52%; Human liver microsome Fmax [2]: 94%
6 | Cc1cnc(CNC(=O)c2cc(OC[C@@H]3CCCO3)cc(-c3ncc(C)s3)c2)cn1 [Example 56, N-[(5-Methylpyrazin-2-yl)methyl]-3-(5-methyl-1,3-thiazol-2-yl)-5-[(2S)-tetrahydrofuran-2-ylmethoxy]benzamide] | 148 nM | ≥ 10000 nM | 
7 | Cc1cnc(-c2cc(OC[C@@H]3CN(C)CCO3)cc(C(=O)N[C@H](C)c3cnc(C(F)(F)F)nc3)c2)s1 [Example 351, 3-{[(2S)-4-methylmorpholin-2-yl]methoxy}-5-(5-methyl-1,3-thiazol-2-yl)-N-{(1R)-1-[2-(trifluoromethyl)pyrimidin-5-yl]ethyl}benzamide] | 16 nM | 690 nM | 
8 | Cc1ccc([C@@H](C)NC(=O)c2cc(O[C@H]3CCOC3)cc(-c3ncc(Cl)s3)c2)nn1 [Example 322, 3-(5-chloro-1,3-thiazol-2-yl)-N-[(1R)-1-(6-methylpyridazin-3-yl)ethyl]-5-[(3S)-tetrahydrofuran-3-yloxy]benzamide] | 49 nM | 498 nM | 
9 | Cc1cnc(CNC(=O)c2cc(Oc3ccnc(C)c3)cc(-c3ncc(C)s3)c2)cn1 [Example 104, N-[(5-Methylpyrazin-2-yl)methyl]-3-[(2-methylpyridin-4-yl)oxy]-5-(5-methyl-1,3-thiazol-2-yl)benzamide] | 51 nM | 377 nM | 
10 | Cc1cnc(-c2cc(OC[C@H]3CN(C)CCO3)cc(C(=O)N[C@@H](C)c3cnc(C(F)(F)F)nc3)c2)s1 [Example 416, 3-{[(2R)-4-methylmorpholin-2-yl]methoxy}-5-(5-methyl-1,3-thiazol-2-yl)-N-{(1S)-1-[2-(trifluoromethyl)pyrimidin-5-yl]ethyl}benzamide] |  | ≥ 10000 nM | IC50 ([4]; read-out: hP2X3 IC50): 227 nM
11 | Cc1ccc(CNC(=O)c2cc(O[C@H]3CCOC3)cc(-c3ncc(C)s3)c2)nn1 [Example 133, N-[(6-Methylpyridazin-3-yl)methyl]-3-(5-methyl-1,3-thiazol-2-yl)-5-[(3S)-tetrahydrofuran-3-yloxy]benzamide] | 177 nM | ≥ 10000 nM | 
12 | Cc1ccc(CNC(=O)c2cc(OC3COC3)cc(-c3ncc(C)s3)c2)nn1 [Example 45, N-[(6-Methylpyridazin-3-yl)methyl]-3-(5-methyl-1,3-thiazol-2-yl)-5-(oxetan-3-yloxy)benzamide] | 212 nM | 1510 nM | 
13 | Cc1cnc(-c2cc(OC[C@@H]3COCC(=O)N3)cc(C(=O)N[C@H](C)c3cnc(C(F)(F)F)nc3)c2)s1 [Example 403, 3-(5-methyl-1,3-thiazol-2-yl)-5-{[(3S)-5-oxomorpholin-3-yl]methoxy}-N-{(1R)-1-[2-(trifluoromethyl)pyrimidin-5-yl]ethyl}benzamide] |  | 2110 nM | IC50 ([4]; read-out: hP2X3 IC50): 56 nM

More lines, main results first:

Row | IC50 [4, 6] | IC50 [5] | Compound | other results
14 | 27 nM | 165 nM | Cc1ncc([C@@H](C)NC(=O)c2cc(OCC3CCOCC3)cc(-c3ncc(C4CCC4)s3)c2)cn1 [Example 124, 3-(5-Cyclobutyl-1,3-thiazol-2-yl)-N-[(1R)-1-(2-methylpyrimidin-5-yl)ethyl]-5-(tetrahydro-2H-pyran-4-ylmethoxy)benzamide] | 
15 | 16 nM | 954 nM | Cc1cnc(-c2cc(OC[C@H]3CN(C(C)C)CCO3)cc(C(=O)N[C@H](C)c3cnc(C(F)(F)F)nc3)c2)s1 [Example 381, 3-(5-methyl-1,3-thiazol-2-yl)-5-{[(2R)-4-(propan-2-yl)morpholin-2-yl]methoxy}-N-{(1R)-1-[2-(trifluoromethyl)pyrimidin-5-yl]ethyl}benzamide] | 
16 | 71 nM | 445 nM | Cc1cnc(-c2cc(O[C@@H]3CCOC3)cc(C(=O)NCc3ccc(C(F)(F)F)nn3)c2)s1 [Example 21, 3-(5-Methyl-1,3-thiazol-2-yl)-5-[(3R)-tetrahydrofuran-3-yloxy]-N-{[6-(trifluoromethyl)pyridazin-3-yl]methyl}benzamide] | 
17 | 44 nM | 273 nM | CC(C)c1cnc(-c2cc(O[C@@H]3CCOC3)cc(C(=O)N[C@H](C)c3cnc(C(F)(F)F)nc3)c2)s1 [Example 248, 3-[5-(propan-2-yl)-1,3-thiazol-2-yl]-5-[(3R)-tetrahydrofuran-3-yloxy]-N-{(1R)-1-[2-(trifluoromethyl)pyrimidin-5-yl]ethyl}benzamide] | 
18 | 15 nM | 1360 nM | Cc1cnc(-c2cc(OC[C@@H]3CN(C)C(=O)O3)cc(C(=O)N[C@H](C)c3cnc(C(F)(F)F)nc3)c2)s1 [Example 397, 3-{[(5S)-3-methyl-2-oxo-1,3-oxazolidin-5-yl]methoxy}-5-(5-methyl-1,3-thiazol-2-yl)-N-{(1R)-1-[2-(trifluoromethyl)pyrimidin-5-yl]ethyl}benzamide] | 
19 | 15 nM | 119 nM | Cc1ccc([C@@H](C)NC(=O)c2cc(OC3CCOCC3)cc(-c3ncc(C)s3)c2)nn1 [Example 87, N-[(1R)-1-(6-Methylpyridazin-3-yl)ethyl]-3-(5-methyl-1,3-thiazol-2-yl)-5-(tetrahydro-2H-pyran-4-yloxy)benzamide] | 
20 | 25 nM | 1030 nM | Cc1cnc(-c2cc(OC[C@@]3(F)CCCNC3)cc(C(=O)N[C@H](C)c3cnc(C(F)(F)F)nc3)c2)s1 [Example 354] | 
